The source of these data is patent publication US20130337463A1, “Cell-Based Models of Neurodegenerative Disease” (The Trustees of the University of Pennsylvania, priority 2010, published 2013).

One series relates to AMPAR. To be noted: published (Dev et al., 1996); cited from earlier work.
In series [1] the test system is primary hippocampal neurons derived from WT C57BL6 mice. The series can be described thus: p-α-syn aggregate formation in primary hippocampal neurons after pff addition. Type of series: cell-based, mouse. Particulars: for p-α-syn aggregate formation: pffs added to DIV5 neurons, 2 weeks. Here is the method: Primary neuronal cultures were prepared from E16-E18 C57BL/6 mouse brains (Charles River, Wilmington, Mass.) and α-syn −/− mice (Abeliovich et al., 2000, Neuron 25:239-252). All procedures were performed according to the NIH Guide for the Care and Use of Experimental Animals and were approved by the University of Pennsylvania Institutional Animal Care and Use Committee. Hippocampi were dissected, rinsed with Hank's Balanced Salt Solution (HBSS) and digested in HBSS containing papain (20 U/mL; Worthington Biochemical Corporation; Lakewood, N.J.) containing DNase (20 μg/mL; Worthington Biochemical Corporation; Lakewood, N.J.). Following rinses in plating media (10% fetal bovine serum, 1% penicillin/streptomycin, Glutamax, B27, Neurobasal media; Invitrogen, Carlsbad, Calif.) and HBSS, dissociated hippocampal neurons were plated in plating media onto poly-D-lysine (0.1 mg/mL, diluted in borate buffer, 0.1M, pH8.4) coated coverslips (Carolina Biological Supply, Burlington, N.C.) in 24 well trays at 20,000-40,000 cells/cm^2 or poly-D-lysine coated 60 mm dishes at 70-100,000 cells/cm2. The media was then changed to neuronal media (1% penicillin/streptomycin, Glutamax, B27, Neurobasal media). Most experiments were performed at 19 days in vitro (DIV).
Recombinant full-length and truncated α-syn with and without a C-terminal myc-tag, were purified as previously described (Giasson et al., 2001, J. Biol. Chem. 276:2380-2386). α-syn pffs were generated by incubating purified α-syn (5 mg/mL in PBS) at 37° C. with constant agitation for 5 days, followed by aliquoting and storage at […]. The presence of amyloid was confirmed using Thioflavin T fluorometry. Fibrils of α-syn synthetic NAC peptide (amino acids 61-95) (Biotechnology Resource Center, Yale University) were generated as described (Giasson et al., 2001, J. Biol. Chem. 276:2380-2386). Pffs were diluted in PBS at 0.1 mg/mL, sonicated several times, and diluted in neuronal media. For a 24-well tray, 1 μg/mL of pffs were added, and 5 μg/mL of α-syn pffs were added to a […]. For WGA experiments, α-syn pffs were incubated with 1 μg/mL or 5 μg/mL WGA or preincubated for 1 hr (h) with 0.1 M GlcNAC followed by incubation with media containing α-syn pffs, GlcNAC, and WGA.
Neurons were fixed with 4% paraformaldehyde in PBS containing 4% sucrose followed by permeabilization with 0.1% Triton X-100. To determine if the pathologic α-syn aggregates were detergent-insoluble, neurons were fixed with 4% paraformaldehyde, 4% sucrose and 1% Tx-100 (Luk et al., 2009, Proc. Natl. Acad. Sci. USA 106:20051-20056). Following fixation, neurons were blocked with 3% bovine serum albumin (BSA) in PBS, and incubated in primary antibodies (Table 6) followed by Alex fluor 594 or 488-conjugated secondary antibodies (anti-mouse, anti-rabbit, anti-IgG1 and anti-IgG2a; Invitrogen; Carlsbad, Calif.) diluted in blocking buffer. To assess cell viability, cells were incubated with ethidium homodimer (2 μM, Sigma Aldrich, St. Louis, Mo.) and Hoechst 33342 (1:1000, Invitrogen, Carlsbad, Calif.) and the percent overlap between both dyes was determined using Metamorph software (Molecular Devices, Sunnyvale, Calif.).

The test system of series [2] is QBI-WT-Syn cells (QBI-293 cells stably expressing WT α-Syn). The series can be described thus: α-Syn inclusion formation after Bioporter transduction of QBI-WT-Syn cells. Type of series: cell-based, human. To be noted: immunostaining 48 h after transduction. How it is done: QBI cells were plated in 35-mm tissue culture plates and allowed to reach 80-90% confluence for transduction experiments. Cells were transferred to serum-free media 1 h before transduction. For each plate, 10 μL of cationic-liposomal protein transduction reagent (Bioporter; Sigma) was added to a 1.5-mL Microfuge tube and evaporated as per the manufacturer's guidelines. The resulting reagent dry-film was then directly resuspended with 80 μL of PBS containing α-Syn fibrils (100 μg/mL) fragmented by brief sonication with a hand-held probe. Protein:reagent complexes were allowed to form at room temperature for 10 min, after which the mixture was further diluted in OptiMEM (Invitrogen) and added to cells. Cells were then further incubated for 4 h, washed twice with Versene and 0.5% trypsin/EDTA to remove extracellular α-Syn fibrils, and transferred onto 6-well tissue culture plates or poly(d-lysine)-coated glass coverslips. […]
Cells on coverslips were washed with PBS and fixed with 4% paraformaldehyde. […] Epifluorescence images were obtained by using a Nikon Eclipse 3000 inverted microscope equipped with a CoolSNAP HQ camera (Roper Scientific) and analyzed by using Metamorph 6.0 (Molecular Devices). […] Confocal laser scanning microscopic images were obtained by using a Zeiss LSM510 microscope and analyzed by using Volocity software (Improvision).

For series [3], the system named is T40/P301L-transfected cells. The series can be described thus: Fibril-alone transduction without BioPORTER reagent (spontaneous PFF uptake). Type of series: cell-based, human. Here is the method: For fibril-alone transduction without BioPORTER reagent, cells were placed on starvation medium right before the addition of fibrils. Fibrils were processed as described above and the same amount was used as in reagent-mediated transduction. Cells were trypsinized and replated either 4 hr or 30 hr after the initial addition of fibrils. For experiments using WGA, different doses of WGA were added to starvation medium together with PFFs. To inhibit endocytosis of WGA, 0.1 M GlcNAc was incubated with medium containing PFFs and 10 µg/ml WGA for 1 hr at 37° C. before being added to cells which were pre-incubated in 0.1M GlcNAc-containing medium for 1 hr. Cells were placed on WGA-free starvation medium 5-6 hr after fibril addition and fixed after overnight incubation to minimize possible toxicity resulted from WGA treatment.
Immunocytochemistry was performed 48 hr after the initial addition of fibrils unless indicated otherwise. Cells were fixed in 4% paraformaldehyde (PFA) for 10 min and permeabilized with 0.1% Triton-X100 for 15 min, or fixed with 4% PFA containing 1% Triton-X100 for 15 min to remove soluble proteins. For visualization of microtubules, cells were fixed with 0.3% glutaraldehyde in PEM buffer (80 mM PIPES, pH6.8, 5 mM EGTA, 1 mM MgCl2) for 10 min, extracted with 1% Triton-X100 for 15 min before being quenched with 10 mg/ml sodium borohydride for 7 min followed by 0.1 M glycine for 20 min. […]
For quantifying the percentage of cells developing tau aggregates with different combinations of endogenous tau and PFFs, 10-20 random-field images were taken at 40× magnification for each combination and at least two independent experiments were performed. For quantification of MT-bundling and PFF-induced tau aggregation in the absence of bioPORTER reagent under various conditions (i.e. different temperatures, with or without WGA/GlcNAc), 10 random-field images were taken at 20× magnification for each condition in each experiment and 3-4 independent experiments were performed. […]

Consider `NS(=O)(=O)c1cccc2c1c([N+](=O)[O-])cc1nc(O)c(O)nc12` [NBQX], for which, in the series on AMPAR, the 50% inhibitory concentration (IC50) was 47 nM.

As to “α-syn-1-89: human α-syn pffs composed of residues 1-89”, the p-α-syn aggregate formation entry in series [1] is “robust accumulation of endogenous p-α-syn aggregates”. “β-galactosidase: unrelated soluble protein”: in series [2], the inclusion formation entry is reported as “did not result in inclusion formation”. For `CC(=O)N[C@H]1C(O)O[C@H](CO)[C@@H](O)[C@@H]1O` (stereo partly shown) [GlcNAc, N-acetyl glucosamine], the “effect on WGA-enhanced aggregate formation” value in series [1] (0.1 M GlcNAc) is “reduced the effects of WGA on α-syn pff-induced aggregate formation”. The “effect on WGA-enhanced PFF uptake and tau aggregation” value in series [3] (0.1 M GlcNAc added to the medium) is recorded as “significantly attenuated”.

In the case of “α-syn-NAC: fibrils of α-syn synthetic NAC peptide (amino acids 61-95)”, the p-α-syn aggregate formation entry in series [1] was “resulted in endogenous mouse α-syn fibrillar LB-like aggregates”.

As for wheat germ agglutinin [WGA], in series [1] (co-incubation with α-syn-hWT pffs, 1 or 5 μg/mL WGA, 4 days), the “effect on extent of p-α-syn pathology” value is reported as “dose-dependently increased the extent of p-α-syn pathology”. In series [3] (co-incubated with myc-K18/P301L PFFs, 0, 5, 10, 15 µg/ml WGA), the “effect on prevalence of tau aggregate-bearing cells” value is listed as “increased the prevalence of tau aggregate-bearing cells”. In addition, in series [3] (up to 15 µg/ml of WGA), the “accumulation of insoluble tau in the absence of PFFs” value is given as “nor does it induce accumulation of insoluble tau in the absence of PFFs”. Regarding “α-syn-58-140: human α-syn pffs composed of residues 58-140”, in series [1], the p-α-syn aggregate formation result is “seeded formation of endogenous mouse α-syn aggregates”.
